Assay results published in patent publication US8975248B2, “Combinations of therapeutic agents for treating cancer” (Sigma-Tau Industrie Farmaceutiche Riunite S.p.A., priority 2004, dated 2015).
Read-outs that look alike come from different tables or passages of the source.

Tests used:
A2780 ovarian carcinoma = experiment: Antitumor activity against A2780 ovarian carcinoma xenograft; assay type: in vivo, human (s.c. xenograft in CD1 nu/nu mice)
Protocol: Vehicle • 2. […] Oxaliplatin 7 mg/10 ml/kg and 4.7 mg/10 ml/kg, i.p. (q4dx2, days 3, 7). • 4. Combination groups: 7-t-butoxyiminomethylcamptothecin+oxaliplatin: 0.28+7, 0.28+4.7, 0.19+7, 0.19+4.7. • 5. […] Oxaliplatin 7 mg/10 ml/kg, i.p. (q7dx2, days 3, 10). • 7. Combination groups: 7-t-butoxyiminomethylcamptothecin+oxaliplatin 0.19+7.
7-8 mice/group are treated 3 days after tumor injection with the following drugs. • 1. Vehicle • 2. […] Carboplatin 50 mg/10 ml/kg, i.p. (q7dx2, days 3, 10). • 7. Combination groups: 7-t-butoxyiminomethylcamptothecin+carboplatin 0.19+50.
(§1) In all the combination groups, the drug were administered 1 h before 7-t butoxyiminomethylcamptothecin.

MCF-7 human breast ca. = experiment: Antitumor activity against MCF-7 breast carcinoma xenograft; details: for BWL % (body weight loss): in vivo, po
Protocol: The pellets are placed in the inter scapular region one day before the tumor cells inoculation. 8 mice/group are treated 6 days after tumor injection with the following drugs: • 1. Vehicle • 2.

[1] = test system: A2780/DDP platinum-resistant ovarian carcinoma; experiment: Antitumor activity against A2780/DDP xenograft; assay type: in vivo, human (xenograft in CD1 nu/nu mice)
Protocol: 8 mice/group are treated 3 days after tumor injection with the following drugs. • 1. Vehicle • 2.
as §1

[2] = test system: NCI-H460 non-small cell lung carcinoma; experiment: Antitumor activity against NCI-H460 xenograft (docetaxel, carboplatin); assay type: in vivo, human (xenograft in CD1 nu/nu mice)
DU145 prostate carcinoma = experiment: Antitumor activity against DU145 xenograft; details: for BWL % (body weight loss): in vivo, po
Protocol: 8 mice/group are treated 14 days after tumor injection with the following drugs: • 1. Vehicle • 2.
8 mice/group are also treated 14 days after tumor injection with the following drugs: • 1. […] Docetaxel 20 mg/10 mi/kg, i.p., (q7dx3, days 14, 21, 28). • 3. Combination groups: 7-t-butoxyiminomethylcamptothecin+docetaxel 0.17+20.

[3] = test system: MDA MB 435S human breast cancer; experiment: Antitumor activity against MDA MB 435S xenograft; assay type: in vivo, human (xenograft in BALB/c nu/nu mice)
Protocol: Test system: BALB/c nu/nu mice for tumor models are used.
The cells are harvested by trypsinisation, washed twice in HBSS and counted using Trypan Blue to distinguish viable cells.
Doxorubicin (either on its own or in conjunction with Gimatecan) is administered 3 times per week intravenously, via the tail vein (i.v.). • 1. Vehicle • 2.
The paired t-test is used to determine differences in body weight changes from Day 0 to Day 13 for groups 14 and 15 and from Day 0 to Day 20 for all other groups (Table 4). All calculations are done using SigmaStat 3.0. The one way ANOVA procedure is used for statistical calculations of differences in the tumor volumes.

[4] = Maximum tolerated dose (MTD) in tumor-bearing mice; assay type: in vivo
NCI-H460 NSCLC [5] = details: in vivo, po
Protocol: (§2) Mice are treated with 3 intravenously doses of paclitaxel at days 3, 10, 17 after tumor injection. […] Treatments in NCI-H460 tumor model are performed in the following groups of 8 mice each: • 1. Vehicle • 2. 50 mg/15 ml/kg, i.v. of paclitaxel (3, 10, 17) • 3. […] 25 mg/15 ml/kg, i.v. of paclitaxel (3, 10, 17) • 5.

NCI-H460 NSCLC [6] = experiment: Antitumor activity against NCI-H460 xenograft (paclitaxel); details: for reduction of the tumor volume: 5 days for 3 cycles
Protocol: as §2

[7] = A 0.28 mg/kg p.o. qdx5/w, 0.28 mg/kg
[8] = A 0.08 mg/kg p.o. qdx5/w, 3 cycles
[9] = docetaxel 20 mg/kg i.p. q3-4dx2
[10] = carboplatin 50 mg/kg i.p. q4dx2

Compound: CC[C@@]1(O)C(=O)OCc2c1cc1n(c2=O)Cc2c-1nc1ccccc1c2/C=N/OC(C)(C)C [A]
- BWL % (body weight loss) (A2780 ovarian carcinoma; A 0.19 mg/kg p.o. qdx5/w): 6%
- CR (complete response) (A2780 ovarian carcinoma; A 0.19 mg/kg p.o. qdx5/w): 8/8
- LCK (log10 cell kill) (A2780 ovarian carcinoma; A 0.19 mg/kg p.o. qdx5/w): 2.15
- TVI % (tumor volume inhibition) (A2780 ovarian carcinoma; A 0.19 mg/kg p.o. qdx5/w): 100%
- Tox (dead/treated mice) (A2780 ovarian carcinoma; A 0.19 mg/kg p.o. qdx5/w): 0/8
- BWL % (body weight loss) (A2780 ovarian carcinoma; A 0.19 mg/kg p.o. qdx5/wx2w): 6%
- CR (complete response) (A2780 ovarian carcinoma; A 0.19 mg/kg p.o. qdx5/wx2w): 4/7
- LCK (log10 cell kill) (A2780 ovarian carcinoma; A 0.19 mg/kg p.o. qdx5/wx2w): 3.15
- TVI % (tumor volume inhibition) (A2780 ovarian carcinoma; A 0.19 mg/kg p.o. qdx5/wx2w): 100%
- Tox (dead/treated mice) (A2780 ovarian carcinoma; A 0.19 mg/kg p.o. qdx5/wx2w): 0/7
- BWL % (body weight loss) (A2780 ovarian carcinoma; A 0.28 mg/kg p.o. qdx5/w): 13%
- CR (complete response) (A2780 ovarian carcinoma; A 0.28 mg/kg p.o. qdx5/w): 8/8
- TVI % (tumor volume inhibition) (A2780 ovarian carcinoma; A 0.28 mg/kg p.o. qdx5/w): 100%
- Tox (dead/treated mice) (A2780 ovarian carcinoma; A 0.28 mg/kg p.o. qdx5/w): 0/8
- LCK (log10 cell kill) (A2780 ovarian carcinoma; [7]): 2.44
- CR (complete response) (MCF-7 human breast ca.; A 0.19 mg/kg p.o. qdx5/w): 1/8
- TVI % (tumor volume inhibition) (MCF-7 human breast ca.; A 0.19 mg/kg p.o. qdx5/w): 81%
- Tox (dead/treated mice) (MCF-7 human breast ca.; A 0.19 mg/kg p.o. qdx5/w): 2/8
- TVI % (tumor volume inhibition) (MCF-7 human breast ca.; A 0.28 mg/kg p.o. qdx5/w): 70%
- Tox (dead/treated mice) (MCF-7 human breast ca.; A 0.28 mg/kg p.o. qdx5/w): 1/8
- CR (complete response) (MCF-7 human breast ca.; [7]): 1/8
- BWL % (body weight loss) (MCF-7 human breast ca.; 0.19 mg/kg): 10%
- BWL % (body weight loss) (MCF-7 human breast ca.; 0.28 mg/kg): 9%
- BWL % (body weight loss) ([1]; A 0.19 mg/kg p.o. qdx5/w): 1%
- LCK (log10 cell kill) ([1]; A 0.19 mg/kg p.o. qdx5/w): 0.18
- TVI % (tumor volume inhibition) ([1]; A 0.19 mg/kg p.o. qdx5/w): 35%
- Tox (dead/treated mice) ([1]; A 0.19 mg/kg p.o. qdx5/w): 0/8
- BWL % (body weight loss) ([1]; A 0.28 mg/kg p.o. qdx5/w): 7%
- LCK (log10 cell kill) ([1]; A 0.28 mg/kg p.o. qdx5/w): 0.23
- TVI % (tumor volume inhibition) ([1]; A 0.28 mg/kg p.o. qdx5/w): 46%
- Tox (dead/treated mice) ([1]; A 0.28 mg/kg p.o. qdx5/w): 0/8
- BWL % (body weight loss) ([2]; A 0.19 mg/kg p.o. qdx5/w): 8%
- CR (complete response) ([2]; A 0.19 mg/kg p.o. qdx5/w): 1/8
- LCK (log10 cell kill) ([2]; A 0.19 mg/kg p.o. qdx5/w): 1.14
- TVI % (tumor volume inhibition) ([2]; A 0.19 mg/kg p.o. qdx5/w): 79%
- Tox (dead/treated mice) ([2]; A 0.19 mg/kg p.o. qdx5/w): 0/8
- BWL % (body weight loss) ([2]; A 0.19 mg/kg p.o. qdx5/wx2w): 7%
- CR (complete response) ([2]; A 0.19 mg/kg p.o. qdx5/wx2w): 0/7
- LCK (log10 cell kill) ([2]; A 0.19 mg/kg p.o. qdx5/wx2w): 2.3
- TVI % (tumor volume inhibition) ([2]; A 0.19 mg/kg p.o. qdx5/wx2w): 94%
- Tox (dead/treated mice) ([2]; A 0.19 mg/kg p.o. qdx5/wx2w): 0/7
- BWL % (body weight loss) ([2]; A 0.28 mg/kg p.o. qdx5/w): 16%
- CR (complete response) ([2]; A 0.28 mg/kg p.o. qdx5/w): 0/8
- LCK (log10 cell kill) ([2]; A 0.28 mg/kg p.o. qdx5/w): 1.45
- TVI % (tumor volume inhibition) ([2]; A 0.28 mg/kg p.o. qdx5/w): 94%
- Tox (dead/treated mice) ([2]; A 0.28 mg/kg p.o. qdx5/w): 1/8
- CR (complete response) (DU145 prostate carcinoma; A 0.19 mg/kg p.o. qdx5/w): 0/8
- LCK (log10 cell kill) (DU145 prostate carcinoma; A 0.19 mg/kg p.o. qdx5/w): 0.28
- TVI % (tumor volume inhibition) (DU145 prostate carcinoma; A 0.19 mg/kg p.o. qdx5/w): 25%
- Tox (dead/treated mice) (DU145 prostate carcinoma; A 0.19 mg/kg p.o. qdx5/w): 0/8
- CR (complete response) (DU145 prostate carcinoma; A 0.25 mg/kg p.o. qdx5/w): 0/8
- LCK (log10 cell kill) (DU145 prostate carcinoma; A 0.25 mg/kg p.o. qdx5/w): 0.28
- TVI % (tumor volume inhibition) (DU145 prostate carcinoma; A 0.25 mg/kg p.o. qdx5/w): 53%
- Tox (dead/treated mice) (DU145 prostate carcinoma; A 0.25 mg/kg p.o. qdx5/w): 0/8
- BWL % (body weight loss) (DU145 prostate carcinoma; 0.19 mg/kg): 4%
- BWL % (body weight loss) (DU145 prostate carcinoma; 0.25 mg/kg): 8%
- BWL % (body weight loss) ([3]; A 0.07 mg/kg p.o. qdx5/w): (+2.5) %
- T/C % ([3]; A 0.07 mg/kg p.o. qdx5/w): 93%
- Tox (dead/treated mice) ([3]; A 0.07 mg/kg p.o. qdx5/w): 9/9
- BWL % (body weight loss) ([3]; A 0.14 mg/kg p.o. qdx5/w): 1%
- T/C % ([3]; A 0.14 mg/kg p.o. qdx5/w): 46%
- Tox (dead/treated mice) ([3]; A 0.14 mg/kg p.o. qdx5/w): 0/9
- BWL % (body weight loss) ([3]; A 0.21 mg/kg p.o. qdx5/w): 1%
- T/C % ([3]; A 0.21 mg/kg p.o. qdx5/w): 5%
- Tox (dead/treated mice) ([3]; A 0.21 mg/kg p.o. qdx5/w): 1/9
- MTD at 5 days ([4]; CD1 nu/nu, mouse, in vivo, po, p.o. qdx5): 0.28 mg/kg
- MTD ([4]; female, CD1 nu/nu, mouse, in vivo, oral, qdx5/w, A2780/DDP model, read-out: approximate maximum tolerated dose): ~0.28 mg/kg
- MTD ([4]; male, mouse, in vivo, oral, qdx5/w, DU145 model, read-out: approximate maximum tolerated dose): ~0.25 mg/kg
- BWL % (body weight loss) (NCI-H460 NSCLC [5]; 0.08 mg/kg): 0%
- BWL % (body weight loss) (NCI-H460 NSCLC [5]; 0.125 mg/kg): 0%
- BWL % (body weight loss) (NCI-H460 NSCLC [5]; 0.25 mg/kg): 0%
- T/C % (TW in treated mice/TW in control mice × 100) (NCI-H460 NSCLC [6]; [8]): 59.5%
- Tox (dead/treated mice) (NCI-H460 NSCLC [6]; [8]): 0/8
- T/C % (TW in treated mice/TW in control mice × 100) (NCI-H460 NSCLC [6]; A 0.125 mg/kg p.o. qdx5/w, 3 cycles): 9.9%
- Tox (dead/treated mice) (NCI-H460 NSCLC [6]; A 0.125 mg/kg p.o. qdx5/w, 3 cycles, 0.125 mg/kg): 0/8
- reduction of the tumor volume (NCI-H460 NSCLC [6]; A 0.125 mg/kg): ~90%
- T/C % (TW in treated mice/TW in control mice × 100) (NCI-H460 NSCLC [6]; A 0.25 mg/kg p.o. qdx5/w, 3 cycles): 1.5%
- Tox (dead/treated mice) (NCI-H460 NSCLC [6]; A 0.25 mg/kg p.o. qdx5/w, 3 cycles, 0.25 mg/kg): 0/8
- reduction of the tumor volume (NCI-H460 NSCLC [6]; A 0.25 mg/kg): about 99%

Compound: CC(=O)O[C@@]12CO[C@@H]1C[C@H](O)[C@@]1(C)C(=O)[C@H](O)C3=C(C)[C@@H](OC(=O)[C@H](O)[C@@H](NC(=O)OC(C)(C)C)c4ccccc4)C[C@@](O)([C@@H](OC(=O)c4ccccc4)[C@H]21)C3(C)C [B, docetaxel, reference compound]
- CR (complete response) (MCF-7 human breast ca.; [9]): 1/8
- TVI % (tumor volume inhibition) (MCF-7 human breast ca.; [9]): 73%
- TVI % (tumor volume inhibition) ([2]; docetaxel 20 mg/kg i.p. q4dx2): 63%
- MTD ([4]; CD1 nu/nu, mouse, in vivo, ip, docetaxel i.p. q4dx2, read-out: MTD): 20 mg/kg

Compound: CC(=O)O[C@H]1C(=O)[C@@]2(C)[C@H]([C@H](OC(=O)c3ccccc3)[C@]3(O)C[C@H](OC(=O)[C@H](O)[C@@H](NC(=O)c4ccccc4)c4ccccc4)C(C)=C1C3(C)C)[C@]1(OC(C)=O)CO[C@@H]1C[C@@H]2O [B, paclitaxel, reference compound]
- MTD ([4]; female, CD1 nu/nu, mouse, in vivo, iv, paclitaxel i.v. q7dx3, read-out: tolerated dose (MTD)): 50 mg/kg
- T/C % (TW in treated mice/TW in control mice × 100) (NCI-H460 NSCLC [6]; paclitaxel 25 mg/kg i.v. q7dx3): 55.2%
- T/C % (TW in treated mice/TW in control mice × 100) (NCI-H460 NSCLC [6]; paclitaxel 33.3 mg/kg i.v. q7dx3): 36.8%
- T/C % (TW in treated mice/TW in control mice × 100) (NCI-H460 NSCLC [6]; paclitaxel 50 mg/kg i.v. q7dx3): 38.6%

Compound: carboplatin [reference compound]
- TVI % (tumor volume inhibition) [1, 10]: 34%
- TVI % (tumor volume inhibition) [2, 10]: 59%
- MTD ([4]; carboplatin i.p. q4dx2): 50 mg/kg
